Laboratory results from ChEMBL document CHEMBL3616373, “Identification of N-sulfonyl-tetrahydroquinolines as RORc inverse agonists” (Bioorg Med Chem Lett, 2015).

Legend:
[1] = target: T1, Nuclear receptor ROR-gamma (Homo sapiens, UniProt P51449); assay: Inverse agonist activity at N-terminal 6xHis-tagged human RORc ligand binding domain (241 to 486) expressed in bacterial expression system assessed as inhibition of SRC1 co-activator peptide recruitment after 3 hrs by TR-FRET analysis; type: functional
T1 sequence (P51449 whole entry): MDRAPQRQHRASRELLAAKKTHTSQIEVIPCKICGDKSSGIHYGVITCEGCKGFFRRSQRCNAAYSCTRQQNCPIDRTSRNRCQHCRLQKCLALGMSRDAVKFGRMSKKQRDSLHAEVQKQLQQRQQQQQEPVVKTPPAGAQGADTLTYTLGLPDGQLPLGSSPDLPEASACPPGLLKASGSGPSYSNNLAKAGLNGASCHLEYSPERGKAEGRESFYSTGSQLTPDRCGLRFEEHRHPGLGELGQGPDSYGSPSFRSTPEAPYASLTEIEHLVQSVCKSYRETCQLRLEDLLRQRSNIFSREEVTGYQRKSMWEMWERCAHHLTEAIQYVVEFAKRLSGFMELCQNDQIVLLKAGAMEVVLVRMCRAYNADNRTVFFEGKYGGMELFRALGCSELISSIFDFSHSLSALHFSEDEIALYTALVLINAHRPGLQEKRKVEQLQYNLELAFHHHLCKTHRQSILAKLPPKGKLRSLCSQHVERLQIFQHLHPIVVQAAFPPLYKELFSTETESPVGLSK

[2] = target: T2, Nuclear receptor ROR-gamma (Homo sapiens) (UniProt P51449); assay: Inverse agonist activity at N-terminal 6xHis-tagged human RORc ligand binding domain (241 to 486) expressed in bacterial expression system assessed as inhibition of SRC1 co-activator peptide recruitment after 3 hrs by TR-FRET analysis relative to apo-RORc ligand binding domain
T2 sequence (whole entry): T1 sequence (P51449 whole entry)

[3] = target: T1, Nuclear receptor ROR-gamma; assay: Displacement of [3H2]-25-hydroxycholesterol from N-terminal 6xHis-tagged human RORc ligand binding domain (241 to 486) expressed in bacterial expression system after 3 hrs by scintillation counting analysis

SMILES	EC50 [1]	Efficacy [2]	IC50 [3]
O=C(Nc1ccc2c(c1)CCCN2S(=O)(=O)c1ccc(F)cc1)c1c(F)cccc1F	> 10000 nM		
Cc1ccc(S(=O)(=O)N2CCCc3ccc(NC(=O)c4c(F)cccc4F)cc32)cc1	150 nM	-95%	110 nM
O=C(Nc1ccc2c(c1)N(S(=O)(=O)c1ccc(F)cc1)CCC2)c1ccccc1	550 nM	-89%	
O=C(Nc1ccc2c(c1)N(S(=O)(=O)c1ccc(F)cc1)CCC2)c1ccccc1F	420 nM	-81%	
CS(=O)(=O)N1CCCc2ccc(NC(=O)c3c(F)cccc3F)cc21	> 10000 nM		
O=C(Nc1ccc2c(c1)N(S(=O)(=O)c1ccc(F)cc1)CCC2)C1CC1	3600 nM	-63%	
O=C(Nc1ccc2c(c1)N(S(=O)(=O)c1ccc(F)cc1)CCCC2)c1c(F)cccc1F	230 nM	-96%	
O=C(Nc1ccc2c(c1)N(S(=O)(=O)c1ccc(F)cc1)CCC2)c1ccncc1	6800 nM	-58%	
O=C(Nc1ccc2c(c1)N(S(=O)(=O)c1cccs1)CCC2)c1c(F)cccc1F	2100 nM	-77%	1100 nM
O=C(Nc1ccc2c(c1)CCN2S(=O)(=O)c1ccc(F)cc1)c1c(F)cccc1F	> 10000 nM		
O=C(Nc1ccc2c(c1)N(S(=O)(=O)c1ccc(F)cc1)CCC2)c1ccc(F)cc1	1700 nM	-75%	
O=C(Nc1ccc2c(c1)N(S(=O)(=O)c1ccc(F)cc1)CCC2)c1ccno1	7400 nM	-54%	
CC(=O)Nc1ccc2c(c1)N(S(=O)(=O)c1ccc(F)cc1)CCC2	> 10000 nM		
O=C(Nc1ccc2c(c1)CCCCN2S(=O)(=O)c1ccc(F)cc1)c1c(F)cccc1F	> 10000 nM		
O=C(Nc1ccc2c(c1)N(S(=O)(=O)c1ccccc1)CCC2)c1c(F)cccc1F	230 nM	-91%	180 nM
O=C(Nc1ccc2c(c1)N(S(=O)(=O)c1ccc(F)cc1)CCC2)c1cccc(F)c1	470 nM	-69%	
Cc1ccccc1C(=O)Nc1ccc2c(c1)N(S(=O)(=O)c1ccc(F)cc1)CCC2	120 nM	-80%	
O=C(Nc1ccc2c(c1)N(S(=O)(=O)c1ccc(F)cc1)CCC2)c1cnccn1	> 10000 nM		
O=C(Nc1ccc2c(c1)N(C(=O)c1ccccc1)CCC2)c1c(F)cccc1F	> 10000 nM		
O=S(=O)(Nc1ccc2c(c1)N(S(=O)(=O)c1ccc(F)cc1)CCC2)c1ccccc1	570 nM	-77%	
